US10670605B2, “Cysteine reactive probes and uses thereof” (The Scripps Research Institute, priority 2015, dated 2020)

Tests used:
Experiment in all cases: Competitive isoTOP-ABPP in situ (fragment-treated cells)
Assay type in all cases: cell-based
[1] = biological target: T1, cysteines in MDA-MB-231 and Ramos cells (Homo sapiens, UniProt Q9NYL9)
T1 sequence (Q9NYL9 1-352): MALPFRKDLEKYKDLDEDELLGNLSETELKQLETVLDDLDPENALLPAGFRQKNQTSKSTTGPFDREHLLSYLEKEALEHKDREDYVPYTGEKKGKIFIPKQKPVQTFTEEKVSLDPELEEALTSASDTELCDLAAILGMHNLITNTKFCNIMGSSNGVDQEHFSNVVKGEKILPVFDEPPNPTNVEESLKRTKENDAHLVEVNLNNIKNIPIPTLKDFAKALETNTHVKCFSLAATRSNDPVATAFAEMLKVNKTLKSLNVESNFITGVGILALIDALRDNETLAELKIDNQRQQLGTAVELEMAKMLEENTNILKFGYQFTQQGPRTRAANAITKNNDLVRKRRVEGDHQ
Protocol: (§1) Fragments 4 and 11 were screened at 100 μM in situ. […] Site-specific engagement of electrophilic fragments was assessed by blockade of IA-alkyne probe labeling. […] Ratios for unique peptide entries were calculated for each experiment; overlapping peptides with the same modified cysteine (e.g. different charge states, MudPIT chromatographic steps or tryptic termini) were grouped together and the median ratio was reported as the final ratio (R). The peptide ratios reported by CIMAGE were further filtered to ensure the removal or correction of low quality ratios in each individual dataset. […] R values were calculated and individual datasets were filtered as described above (R value calculation and processing).

[2] = biological target: T2, cysteines in MDA-MB-231 and Ramos cells (Homo sapiens, UniProt Q96HE7)
T2 sequence (Q96HE7 24-468): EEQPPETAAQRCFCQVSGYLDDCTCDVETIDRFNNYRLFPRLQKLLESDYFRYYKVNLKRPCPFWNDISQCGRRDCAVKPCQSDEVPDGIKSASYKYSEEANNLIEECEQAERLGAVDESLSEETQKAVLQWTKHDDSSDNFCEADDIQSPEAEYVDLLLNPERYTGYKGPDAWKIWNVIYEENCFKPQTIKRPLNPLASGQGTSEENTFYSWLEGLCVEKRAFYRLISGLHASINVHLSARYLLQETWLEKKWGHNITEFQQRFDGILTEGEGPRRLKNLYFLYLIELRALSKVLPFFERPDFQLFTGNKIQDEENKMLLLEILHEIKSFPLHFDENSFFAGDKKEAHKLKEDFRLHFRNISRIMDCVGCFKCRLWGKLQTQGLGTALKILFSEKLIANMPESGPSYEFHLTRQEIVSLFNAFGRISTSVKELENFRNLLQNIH
Protocol: as §1

[3] = biological target: T3, cysteines in MDA-MB-231 and Ramos cells (Homo sapiens, UniProt P13667)
T3 sequence (P13667 21-645): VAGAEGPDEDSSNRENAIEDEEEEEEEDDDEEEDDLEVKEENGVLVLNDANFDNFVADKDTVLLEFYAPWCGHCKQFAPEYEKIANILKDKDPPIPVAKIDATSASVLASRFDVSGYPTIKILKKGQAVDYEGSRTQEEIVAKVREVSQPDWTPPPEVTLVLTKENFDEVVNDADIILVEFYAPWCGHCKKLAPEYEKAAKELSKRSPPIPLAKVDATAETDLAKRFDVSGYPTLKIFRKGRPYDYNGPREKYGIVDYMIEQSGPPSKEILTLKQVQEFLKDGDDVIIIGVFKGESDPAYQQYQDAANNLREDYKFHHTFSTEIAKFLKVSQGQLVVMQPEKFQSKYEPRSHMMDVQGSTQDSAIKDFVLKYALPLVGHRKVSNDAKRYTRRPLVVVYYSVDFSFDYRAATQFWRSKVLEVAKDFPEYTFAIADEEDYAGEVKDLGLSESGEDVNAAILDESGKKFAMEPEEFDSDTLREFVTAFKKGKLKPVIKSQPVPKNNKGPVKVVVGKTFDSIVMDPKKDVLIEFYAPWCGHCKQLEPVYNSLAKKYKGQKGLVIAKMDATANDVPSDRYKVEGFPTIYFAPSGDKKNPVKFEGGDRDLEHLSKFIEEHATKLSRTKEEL
Protocol: as §1

[4] = biological target: T4, cysteines in MDA-MB-231 and Ramos cells (Homo sapiens, UniProt Q9NS86)
T4 sequence (Q9NS86 1-450): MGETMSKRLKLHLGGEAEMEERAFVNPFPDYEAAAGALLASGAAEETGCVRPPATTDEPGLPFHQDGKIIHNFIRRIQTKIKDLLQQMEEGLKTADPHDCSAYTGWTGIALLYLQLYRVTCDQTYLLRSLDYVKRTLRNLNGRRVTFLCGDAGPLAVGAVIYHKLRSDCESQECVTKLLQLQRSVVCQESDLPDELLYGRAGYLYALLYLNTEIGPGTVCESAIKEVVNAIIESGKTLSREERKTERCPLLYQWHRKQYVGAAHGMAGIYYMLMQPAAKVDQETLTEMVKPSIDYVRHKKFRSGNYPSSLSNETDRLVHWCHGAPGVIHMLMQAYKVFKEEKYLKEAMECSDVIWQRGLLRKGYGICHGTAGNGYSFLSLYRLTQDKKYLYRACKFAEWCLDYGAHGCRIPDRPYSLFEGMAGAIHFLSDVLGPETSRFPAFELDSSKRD
Protocol: as §1

| SMILES | isoTOP-ABPP ratio Q9NYL9_C132 ([1]; 200 μM, insitu, 231) | isoTOP-ABPP ratio Q96HE7_C241 ([2]; 200 μM, insitu, 231) | isoTOP-ABPP ratio P13667_C206 ([3]; 200 μM, insitu, 231) | isoTOP-ABPP ratio P13667_C555 ([3]; 200 μM, insitu, 231) | isoTOP-ABPP ratio Q9NS86_C187 ([4]; 200 μM, insitu, 231) | also measured |
| --- | --- | --- | --- | --- | --- | --- |
| CC(C)CCOCCNC(=O)CCl [compound 27] | 0.6 | 0.9 | 1.0 | 1.2 | 0.4 |  |
| COc1cc2c(cc1OC)CN(C(=O)CCl)CC2 [compound 8] |  |  |  |  |  | isoTOP-ABPP reactivity Q9NYL9_C132 TMOD3 ([1]; 200 μM, insitu, 231): 0.9; isoTOP-ABPP reactivity Q96HE7_C241 ERO1L ([2]; 200 μM, insitu, 231): 3.7; isoTOP-ABPP reactivity P13667_C206 PDIA4 ([3]; 200 μM, insitu, 231): 15.2; isoTOP-ABPP reactivity P13667_C555 PDIA4 ([3]; 200 μM, insitu, 231): 20.0; isoTOP-ABPP reactivity Q9NS86_C187 LANCL2 ([4]; 200 μM, insitu, 231): 6.1 |
| COc1ccc(C2CC(c3cccs3)=NN2C(=O)CCl)cc1 (stereo not shown) [compound 4] |  |  |  |  |  | isoTOP-ABPP reactivity Q9NYL9_C132 TMOD3 ([1]; 100 μM in situ 231): 0.8; isoTOP-ABPP reactivity Q96HE7_C37 ERO1L ([2]; 100 μM in situ 231): 5.4; isoTOP-ABPP reactivity Q96HE7_C241 ERO1L ([2]; 100 μM in situ 231): 3.0; isoTOP-ABPP reactivity P13667_C206 PDIA4 ([3]; 100 μM in situ 231): 6.8; isoTOP-ABPP reactivity P13667_C555 PDIA4 ([3]; 100 μM in situ 231): 9.0; isoTOP-ABPP reactivity Q9NS86_C187 LANCL2 ([4]; 100 μM in situ 231): 1.6 |
| O=C(CCl)Nc1cccc2ncccc12 [compound 51] | 0.8 | 1.7 | 5.3 | 6.0 | 2.0 |  |
| COc1ccccc1OCCNC(=O)CCl [compound 28] | 0.7 | 1.1 | 1.3 |  |  |  |
| O=C(CCl)N1CCN(S(=O)(=O)c2ccccc2F)CC1 [compound 10] |  | 2.0 | 3.8 | 3.3 | 6.3 | isoTOP-ABPP ratio P13667_C555 ([3]; 200 μM, insitu, ramos): 1.4 |
| CC1CCc2ccccc2N1C(=O)CCl (stereo not shown) [compound 45] | 0.9 | 2.1 | 1.9 | 2.6 | 3.1 | isoTOP-ABPP ratio Q96HE7_C37 ([2]; 200 μM, insitu, 231): 20.0 |
| Cc1ccc(C=C(C#N)C(=O)NCCN2CCOCC2)cc1 [compound 41] | 0.3 | 0.7 | 1.0 | 1.0 | 0.6 | isoTOP-ABPP ratio Q96HE7_C37 ([2]; 200 μM, insitu, 231): 0.4 |
| COc1ccc2c(c1)CCCN2C(=O)CCl [compound 2] |  |  |  |  |  | isoTOP-ABPP reactivity Q9NYL9_C132 TMOD3 ([1]; 200 μM, insitu, 231): 2.2; isoTOP-ABPP reactivity Q96HE7_C241 ERO1L ([2]; 200 μM, insitu, 231): 2.4; isoTOP-ABPP reactivity P13667_C206 PDIA4 ([3]; 200 μM, insitu, 231): 2.6; isoTOP-ABPP reactivity P13667_C555 PDIA4 ([3]; 200 μM, insitu, 231): 3.2 |
| C=CC(=O)Nc1cc(F)c(N2CCN(C(=O)OC(C)(C)C)CC2)c(F)c1 [compound 38] | 2.6 | 1.6 | 0.9 | 0.8 | 2.0 | isoTOP-ABPP ratio Q96HE7_C37 ([2]; 200 μM, insitu, 231): 3.4 |
| O=C(CCl)NC(=O)NC12CC3CC(CC(C3)C1)C2 [compound 12] | 0.6 | 16.4 | 16.6 | 20.0 | 2.0 |  |
| C=CC(=O)N(Cc1cccnc1)c1cc(C(F)(F)F)cc(C(F)(F)F)c1 [compound 31] | 0.7 | 0.7 | 0.8 | 0.8 | 0.5 | isoTOP-ABPP ratio Q9NYL9_C132 ([1]; 200 μM, insitu, ramos): 0.7; isoTOP-ABPP ratio Q96HE7_C37 ([2]; 200 μM, insitu, 231): 0.6; isoTOP-ABPP ratio P13667_C206 ([3]; 200 μM, insitu, ramos): 1.1; isoTOP-ABPP ratio P13667_C555 ([3]; 200 μM, insitu, ramos): 1.1 |
| Cn1cc(S(=O)(=O)N2CCOCC2)cc1C(=O)NC(=O)CCl [compound 11] |  |  |  |  |  | isoTOP-ABPP ratio Q9NYL9_C132 ([1]; 100 μM in situ 231): 0.5; isoTOP-ABPP ratio Q96HE7_C241 ([2]; 100 μM in situ 231): 1.8; isoTOP-ABPP ratio P13667_C206 ([3]; 100 μM in situ 231): 4.1; isoTOP-ABPP ratio Q9NS86_C187 ([4]; 100 μM in situ 231): 0.8 |
| O=C(CCl)NCCc1c[nH]c2ccccc12 [compound 13] |  | 1.5 | 1.1 |  | 1.0 | isoTOP-ABPP ratio Q96HE7_C241 ([2]; 200 μM, insitu, ramos): 1.3; isoTOP-ABPP ratio, cysteine Q96HE7_C37 ([2]; 200 μM, insitu, ramos): 1.4; isoTOP-ABPP ratio P13667_C555 ([3]; 200 μM, insitu, ramos): 2.0; isoTOP-ABPP ratio Q9NS86_C187 ([4]; 200 μM, insitu, ramos): 1.1 |
| O=C(CCl)N1CCN(CC(=O)N2CCOCC2)CC1 [compound 29] |  |  |  |  |  | isoTOP-ABPP ratio Q9NYL9_C132 ([1]; 200 μM, insitu, ramos): 0.9; isoTOP-ABPP ratio Q96HE7_C37 ([2]; 200 μM, insitu, ramos): 2.1; isoTOP-ABPP ratio Q96HE7_C241 ([2]; 200 μM, insitu, ramos): 1.3; isoTOP-ABPP ratio P13667_C206 ([3]; 200 μM, insitu, ramos): 1.4; isoTOP-ABPP ratio P13667_C555 ([3]; 200 μM, insitu, ramos): 1.5; isoTOP-ABPP ratio Q9NS86_C187 ([4]; 200 μM, insitu, ramos): 1.7 |
| O=C(CCl)NC12CC3CC(CC(C3)C1)C2 [compound 21] | 1.4 | 1.6 | 0.8 |  | 0.9 |  |
| O=C(CCl)N1CCC(Cc2ccccc2)CC1 [compound 9] |  |  |  |  |  | isoTOP-ABPP reactivity Q9NYL9_C132 TMOD3 ([1]; 200 μM, insitu, 231): 7.6; isoTOP-ABPP reactivity Q96HE7_C37 ERO1L ([2]; 200 μM, insitu, 231): 20.0; isoTOP-ABPP reactivity P13667_C206 PDIA4 ([3]; 200 μM, insitu, 231): 1.1; isoTOP-ABPP reactivity P13667_C555 PDIA4 ([3]; 200 μM, insitu, 231): 1.4; isoTOP-ABPP reactivity Q9NS86_C187 LANCL2 ([4]; 200 μM, insitu, 231): 15 |
